The structures appear in SMILES notation. Activity calls are given as the source filed them. The rule behind the calls is not given here.

Among the data in PubChem BioAssay AID1259407 (Chemical Carcinogenesis Research Information System (CCRIS), 2018) are mutagenic call values, retold here.

This data set deals with CCRIS mutagenicity, Ames/micronucleus/aberration tests. In words: CCRIS mutagenicity studies.
The mark [1] stands for this setting: Test System: AMES SALMONELLA TYPHIMURIUM, Strain/Indicator: TA100, Metabolic Activation: NONE, Method: PREINCUBATION

Regarding `BrCC(Br)C1CCC(Br)C(Br)C1` (configuration not stated), the mutagenic call by setting is: (End Point: IN VITRO CHROMOSOMAL ABERRATIONS, Test System: CHINESE HAMSTER LUNG CELLS (CHL), Metabolic Activation: NONE) “inactive; negative”; (End Point: IN VITRO CHROMOSOMAL ABERRATIONS, Test System: CHINESE HAMSTER LUNG CELLS (CHL), Metabolic Activation: RAT, LIVER, S-9, KC-400) “active; positive (structural changes)”; (End Point: IN VITRO CHROMOSOMAL ABERRATIONS, Test System: CHINESE HAMSTER OVARY CELLS (CHO), Metabolic Activation: NONE) “inactive; negative”; (End Point: IN VITRO CHROMOSOMAL ABERRATIONS, Test System: CHINESE HAMSTER OVARY CELLS (CHO), Metabolic Activation: RAT, LIVER, S-9, AROCLOR 1254) “inactive; negative”; (End Point: IN VITRO CHROMOSOMAL ABERRATIONS, Test System: CHO CELLS, Metabolic Activation: NONE) “inactive; negative”; (End Point: IN VITRO CHROMOSOMAL ABERRATIONS, Test System: CHO CELLS, Metabolic Activation: RAT, LIVER, S-9, AROCLOR 1254) “inactive; negative”. The mutagenic call reads like this: (Test System: AMES SALMONELLA TYPHIMURIUM, Strain/Indicator: TA98, Metabolic Activation: HAMSTER, LIVER, S-9, AROCLOR 1254 (10%), Method: PREINCUBATION) “inactive; negative”; (Test System: AMES SALMONELLA TYPHIMURIUM, Strain/Indicator: TA98, Metabolic Activation: NONE, Method: PREINCUBATION) “inactive; negative”; (Test System: AMES SALMONELLA TYPHIMURIUM, Strain/Indicator: TA98, Metabolic Activation: RAT, LIVER, S-9, AROCLOR 1254 (10%), Method: PREINCUBATION) “inactive; negative”; (Test System: AMES SALMONELLA TYPHIMURIUM, Strain/Indicator: TA100, Metabolic Activation: HAMSTER, LIVER, S-9, AROCLOR 1254 (10%), Method: PREINCUBATION) “inactive; negative”; under setting [1], “inactive; negative”; (Test System: AMES SALMONELLA TYPHIMURIUM, Strain/Indicator: TA100, Metabolic Activation: RAT, LIVER, S-9, AROCLOR 1254 (10%), Method: PREINCUBATION) “inactive; negative”. The mutagenic call was “inactive; negative” (Test System: AMES SALMONELLA TYPHIMURIUM, Strain/Indicator: TA1535, Metabolic Activation: HAMSTER, LIVER, S-9, AROCLOR 1254 (10%), Method: PREINCUBATION); “inactive; negative” (Test System: AMES SALMONELLA TYPHIMURIUM, Strain/Indicator: TA1535, Metabolic Activation: NONE, Method: PREINCUBATION); “inactive; negative” (Test System: AMES SALMONELLA TYPHIMURIUM, Strain/Indicator: TA1535, Metabolic Activation: RAT, LIVER, S-9, AROCLOR 1254 (10%), Method: PREINCUBATION); “inactive; negative” (Test System: AMES SALMONELLA TYPHIMURIUM, Strain/Indicator: TA1537, Metabolic Activation: HAMSTER, LIVER, S-9, AROCLOR 1254 (10%), Method: PREINCUBATION); “inactive; negative” (Test System: AMES SALMONELLA TYPHIMURIUM, Strain/Indicator: TA1537, Metabolic Activation: NONE, Method: PREINCUBATION); “inactive; negative” (Test System: AMES SALMONELLA TYPHIMURIUM, Strain/Indicator: TA1537, Metabolic Activation: RAT, LIVER, S-9, AROCLOR 1254 (10%), Method: PREINCUBATION). Further, under “Test System: MOUSE LYMPHOMA, Strain/Indicator: L5178Y (TK+/TK-), Metabolic Activation: NONE, Method: SUSPENSION/PLATE”, the mutagenic call was “active; positive”.
With `C[C@]12CCC(=O)C=C1CC[C@@H]1[C@@H]2[C@@H](O)C[C@@]2(C)[C@H]1CC[C@]2(O)C(=O)CO`, the mutagenic call is, setting by setting: (End Point: IN VITRO CHROMOSOMAL ABERRATIONS, Test System: HUMAN PERIPHERAL BLOOD LYMPHOCYTES, Metabolic Activation: NONE) “active; positive”; (Test System: UDS RAT HEPATOCYTES, Strain/Indicator: THY INCORP (18-20 HR), Metabolic Activation: NONE, Method: LIQUID SCINTILLATION COUNTING) “inactive; negative”.
For `CCCCCCC(=O)OCCN1CCN(CCCN2c3ccccc3Sc3ccc(C(F)(F)F)cc32)CC1`, the mutagenic call is “inactive; negative” (Test System: AMES SALMONELLA TYPHIMURIUM, Strain/Indicator: TA98, Metabolic Activation: NONE); “inactive; negative” (Test System: AMES SALMONELLA TYPHIMURIUM, Strain/Indicator: TA98, Metabolic Activation: RAT, LIVER, S-9, PHENOBARBITAL AND 5,6-BENZOFLAVONE); “inactive; negative” (Test System: AMES SALMONELLA TYPHIMURIUM, Strain/Indicator: TA100, Metabolic Activation: NONE); “inactive; negative” (Test System: AMES SALMONELLA TYPHIMURIUM, Strain/Indicator: TA100, Metabolic Activation: RAT, LIVER, S-9, PHENOBARBITAL AND 5,6 BENZOFLAVONE); “inactive; negative” (Test System: AMES SALMONELLA TYPHIMURIUM, Strain/Indicator: TA1535, Metabolic Activation: NONE); “inactive; negative” (Test System: AMES SALMONELLA TYPHIMURIUM, Strain/Indicator: TA1535, Metabolic Activation: RAT, LIVER, S-9, PHENOBARBITAL AND 5,6-BENZOFLAVONE). Besides, the mutagenic call is “inactive; negative” (Test System: AMES SALMONELLA TYPHIMURIUM, Strain/Indicator: TA1537, Metabolic Activation: NONE); “inactive; negative” (Test System: AMES SALMONELLA TYPHIMURIUM, Strain/Indicator: TA1537, Metabolic Activation: RAT, LIVER, S-9, PHENOBARBITAL AND 5,6-BENZOFLAVONE); “inactive; negative” (Test System: E. COLI, Strain/Indicator: WP2 UVRA, Metabolic Activation: NONE); “inactive; negative” (Test System: E. COLI, Strain/Indicator: WP2 UVRA, Metabolic Activation: RAT, LIVER, S-9, PHENOBARBITAL AND 5,6 BENZOFLAVONE).
In the case of `Cc1cc(=O)oc2c3c(ccc12)C1(C)OOC1(C)O3` (configuration not stated), under setting [1], the mutagenic call is “active; positive”.
